Data reported in patent US12152020B2, “Pesticidally active azole-amide compounds” (SYNGENTA PARTICIPATIONS AG, priority 2018, dated 2024).

How the values were obtained:
Assay type in all cases: in vivo
[1] = system: Frankliniella occidentalis (Western Flower Thrips); experiment: Example B3: Frankliniella occidentalis feeding/contact activity, sunflower leaf discs; conditions: foliar, 168 h, application rate of 200 ppm, population of mixed ages, 7 days after infestation
Experimental: Example B3: Frankliniella occidentalis (Western Flower Thrips):Feeding/Contact Activity
Sunflower leaf discs were placed on agar in 24-well microtiter plates and sprayed with aqueous test solutions prepared from […] stock solutions. After drying the leaf discs were infested with a Frankliniella population of mixed ages. The samples were assessed for mortality 7 days after infestation.

[2] = system: Plutella xylostella (Diamond Back Moth); experiment: Example B5: Plutella xylostella, artificial diet in 24-well plates, eggs; conditions: 192 h, application rate of 200 ppm, 8 days after infestation, in comparison to untreated samples, read-out: effect in at least one of the two categories (mortality or growth inhibition)
Experimental: Example B5: Plutella xylostella (Diamond Back Moth)
24-well microtiter plates with artificial diet were treated with aqueous test solutions prepared from 10′000 ppm DMSO stock solutions by pipetting. After drying, Plutella eggs were pipetted through a plastic stencil onto a gel blotting paper and the plate was closed with it. The samples were assessed for mortality and growth inhibition in comparison to untreated samples 8 days after infestation.
The following compounds gave an effect of at least 80% in at least one of the two categories (mortality or growth inhibition) at an application rate of 200 ppm: • P1, P2, P3, P4, P5, P7, P8, P9, P14, P15, P16, P17, P18, P21, P22, P23, P24, P25, P27, P28, P29, P30, P31, P32, P33, P34, P35, P36

[3] = system: Euschistus heros (Neotropical Brown Stink Bug); experiment: Example B2: Euschistus heros, soybean leaves sprayed, N2 nymphs; conditions: 120 h, application rate of 200 ppm, 5 days after infestation, in comparison to untreated samples, read-out: effect in at least one of the two categories (mortality or growth inhibition)
Experimental: Example B2: Euschistus heros (Neotropical Brown Stink Bug)
Soybean leaves on agar in 24-well microtiter plates were sprayed with aqueous test solutions prepared from 10′000 ppm DMSO stock solutions. After drying the leaves were infested with N2 nymphs. The samples were assessed for mortality and growth inhibition in comparison to untreated samples 5 days after infestation.
The following compounds gave an effect of at least 80% in at least one of the two categories (mortality or growth inhibition) at an application rate of 200 ppm: • P1, P2, P3, P7, P11, P12, P16, P17, P18, P22, P25, P29, P32, P33, P37, P38

[4] = system: Chilo suppressalis (Striped Rice Stemborer); experiment: Example B4: Chilo suppressalis, artificial diet, L2 larvae; conditions: 144 h, application rate of 200 ppm, 6 days after infestation, in comparison to untreated samples, read-out: control in at least one of the categories (mortality, anti-feedant effect, or growth inhibition)
Experimental: Example B4: Chilo suppressalis (Striped Rice Stemborer)
24-well microtiter plates with artificial diet were treated with aqueous test solutions prepared from 10′000 ppm DMSO stock solutions by pipetting. After drying, the plates were infested with L2 larvae (6-8 per well). The samples were assessed for mortality, anti-feeding effect, and growth inhibition in comparison to untreated samples 6 days after infestation. Control of Chilo suppressalis by a test sample is given when at least one of the categories mortality, anti-feedant effect, and growth inhibition is higher than the untreated sample.

[5] = system: Myzus persicae (Green Peach Aphid); experiment: Example B13: Myzus persicae, sucrose solution under Parafilm, 96-well; conditions: 120 h, application rate of 50 ppm, 5 days after infestation
Text: Example B13: Myzus persicae (Green Peach Aphid)
Test compounds prepared from 10′000 ppm DMSO stock solutions were applied by a liquid handling robot into 96-well microtiter plates and mixed with a sucrose solution. Parafilm was stretched over the 96-well microtiter plate and a plastic stencil with 96 holes was placed onto the plate. Aphids were sieved into the wells directly onto the Parafilm. The infested plates were closed with a gel blotting card and a second plastic stencil and then turned upside down. The samples were assessed for mortality 5 days after infestation.

[6] = system: Myzus persicae (Green Peach Aphid); experiment: Example B8: Myzus persicae intrinsic activity, sucrose solution under Parafilm, 24-well; conditions: 120 h, test rate of 12 ppm, 5 days after infestation
Text: Example B8: Myzus persicae (Green Peach Aphid): Intrinsic Activity
Test compounds prepared from 10′000 ppm DMSO stock solutions were applied by pipette into 24-well microtiter plates and mixed with sucrose solution. The plates were closed with a stretched Parafilm. A plastic stencil with 24 holes was placed onto the plate and infested pea seedlings were placed directly on the Parafilm. The infested plate was closed with a gel blotting paper and another plastic stencil and then turned upside down. The samples were assessed for mortality 5 days after infestation.

[7] = system: Myzus persicae (Green Peach Aphid); experiment: Example B6: Myzus persicae feeding/contact activity, sunflower leaf discs; conditions: foliar, 144 h, application rate of 200 ppm, aphid population of mixed ages, 6 days after infestation
Experimental: Example B6: Myzus persicae (Green Peach Aphid): Feeding/Contact Activity
Sunflower leaf discs were placed onto agar in a 24-well microtiter plate and sprayed with aqueous test solutions prepared from 10′000 ppm DMSO stock solutions. After drying, the leaf discs were infested with an aphid population of mixed ages. The samples were assessed for mortality 6 days after infestation.

[8] = system: Diabrotica balteata (Corn Root Worm); experiment: Example B1: Diabrotica balteata, maize sprouts sprayed, L2 larvae; conditions: 96 h, application rate of 200 ppm, 4 days after infestation, in comparison to untreated samples, read-out: effect in at least one of the two categories (mortality or growth inhibition)
Experimental: Example B1: Diabrotica balteata (Corn Root Worm)
Maize sprouts placed onto an agar layer in 24-well microtiter plates were treated with aqueous test solutions prepared from 10′000 ppm DMSO stock solutions by spraying. After drying, the plates were infested with L2 larvae (6 to 10 per well). The samples were assessed for mortality and growth inhibition in comparison to untreated samples 4 days after infestation.
The following compounds gave an effect of at least 80% in at least one of the two categories (mortality or growth inhibition) at an application rate of 200 ppm: • P2, P3, P4, P5, P6, P7, P8, P14, P15, P16, P17, P18, P19, P20, P21, P22, P23, P24, P25, P27, P28, P29, P30, P31, P32, P33, P34, P35

[9] = system: Spodoptera littoralis (Egyptian Cotton Leaf Worm); experiment: Example B9: Spodoptera littoralis, cotton leaf discs sprayed, L1 larvae; conditions: foliar, 72 h, application rate of 200 ppm, five L1 larvae, 3 days after infestation, in comparison to untreated samples, read-out: control in at least one of the categories (mortality, anti-feedant effect, or growth inhibition)
Experimental: Example B9: Spodoptera littoralis (Egyptian Cotton Leaf Worm)
Cotton leaf discs were placed onto agar in 24-well microtiter plates and sprayed with aqueous test solutions prepared from 10′000 ppm DMSO stock solutions. After drying the leaf discs were infested with five L1 larvae. The samples were assessed for mortality, anti-feeding effect, and growth inhibition in comparison to untreated samples 3 days after infestation. Control of Spodoptera littoralis by a test sample is given when at least one of the categories mortality, anti-feedant effect, and growth inhibition is higher than the untreated sample.

[10] = system: Plutella xylostella (Diamondback Moth); experiment: Example B14: Plutella xylostella, artificial diet in 96-well plates, eggs; conditions: 216 h, application rate of 500 ppm, 9 days after infestation
Experimental: Example B14: Plutella xylostella (Diamondback Moth)
96-well microtiter plates containing artificial diet were treated with aqueous test solutions, prepared from 10′000 ppm DMSO stock solutions, by a liquid handling robot. After drying, eggs (˜30 per well) were infested onto a netted lid which was suspended above the diet. The eggs hatch and L1 larvae move down to the diet. The samples were assessed for mortality 9 days after infestation.
The following compounds gave an effect of at least 80% average mortality at an application rate of 500 ppm: • P2, P3, P5, P6, P7, P9, P15, P16, P17, P18, P20, P22, P24, P25, P30, P31, P32, P33, P38.

CC(NC(=O)c1cc(C(F)(F)F)cc(C(F)(F)F)c1)c1nc(-c2ncno2)nn1-c1ncccn1 (centres unmarked) [Compound P1, N-[1-[5-(1,2,4-oxadiazol-5-yl)-2-pyrimidin-2-yl-1,2,4-triazol-3-yl]ethyl]-3,5-bis(trifluoromethyl)benzamide]
≥ 80%: mortality at 200 ppm [1] | percent effect (mortality or growth inhibition) at 200 ppm [2] | percent effect (mortality or growth inhibition) at 200 ppm [3] | percent control (mortality, anti-feedant effect or growth inhibition) at 200 ppm [4]

CC(c1nc(C(=O)N(C)C)nn1-c1ncccn1)N(C)C(=O)c1cc(C(F)(F)F)cc(C(F)(F)F)c1 (centres unmarked) [Compound P11, 5-[1-[[3,5-bis(trifluoromethyl)benzoyl]-methyl-amino]ethyl]-N,N-dimethyl-1-pyrimidin-2-yl-1,2,4-triazole-3-carboxamide]
≥ 80%: mortality at 50 ppm [5] | mortality at 12 ppm [6] | mortality at 200 ppm [7] | percent effect (mortality or growth inhibition) at 200 ppm [3] | percent control (mortality, anti-feedant effect or growth inhibition) at 200 ppm [4]

CC(NC(=O)c1cc(C(F)(F)F)cc(C(F)(F)F)c1)c1nc(OC(F)(F)F)nn1-c1ccccn1 (centres unmarked) [Compound P25, N-[1-[2-(2-pyridyl)-5-(trifluoromethoxy)-1,2,4-triazol-3-yl]ethyl]-3,5-bis(trifluoromethyl) benzamide]
≥ 80%: percent effect (mortality or growth inhibition) at 200 ppm [8] | percent effect (mortality or growth inhibition) at 200 ppm [2] | percent control (mortality, anti-feedant effect or growth inhibition) at 200 ppm [9] | percent effect (mortality or growth inhibition) at 200 ppm [3] | mortality at 500 ppm [10] | percent control (mortality, anti-feedant effect or growth inhibition) at 200 ppm [4]

CC(NC(=O)c1cc(C(F)(F)F)cc(C(F)(F)F)c1)c1nc(OC(F)F)nn1-c1ncccn1 (centres unmarked) [Compound P28, N-[1-[5-(difluoromethoxy)-2-pyrimidin-2-yl-1,2,4-triazol-3-yl]ethyl]-3,5-bis(trifluoromethyl)benzamide]
≥ 80%: percent effect (mortality or growth inhibition) at 200 ppm [8] | mortality at 200 ppm [1] | percent effect (mortality or growth inhibition) at 200 ppm [2] | mortality at 12 ppm [6] | percent control (mortality, anti-feedant effect or growth inhibition) at 200 ppm [9] | percent control (mortality, anti-feedant effect or growth inhibition) at 200 ppm [4]

CC(NC(=O)c1cc(C(F)(F)F)cc(C(F)(F)F)c1)c1nc(OCC(F)F)nn1-c1ncccn1 (centres unmarked) [Compound P29, N-[1-[5-(2,2-difluoroethoxy)-2-pyrimidin-2-yl-1,2,4-triazol-3-yl]ethyl]-3,5-bis(trifluoromethyl) benzamide]
≥ 80%: percent effect (mortality or growth inhibition) at 200 ppm [8] | percent effect (mortality or growth inhibition) at 200 ppm [2] | percent control (mortality, anti-feedant effect or growth inhibition) at 200 ppm [9] | percent effect (mortality or growth inhibition) at 200 ppm [3] | percent control (mortality, anti-feedant effect or growth inhibition) at 200 ppm [4]

CC(NC(=O)c1cc(C(F)(F)F)cc(C(F)(F)F)c1)c1nc(-c2nnco2)nn1-c1ncccn1 (centres unmarked) [Compound P30, N-[1-[5-(1,3,4-oxadiazol-2-yl)-2-pyrimidin-2-yl-1,2,4-triazol-3-yl]ethyl]-3,5-bis(trifluoromethyl)benzamide]
≥ 80%: percent effect (mortality or growth inhibition) at 200 ppm [8] | mortality at 50 ppm [5] | percent effect (mortality or growth inhibition) at 200 ppm [2] | mortality at 12 ppm [6] | percent control (mortality, anti-feedant effect or growth inhibition) at 200 ppm [9] | mortality at 500 ppm [10] | percent control (mortality, anti-feedant effect or growth inhibition) at 200 ppm [4]

CC(NC(=O)c1cc(Cl)cc(C(F)(F)F)c1)c1nc(Br)nn1-c1ncccn1 (centres unmarked) [Compound P33, N-[1-(5-bromo-2-pyrimidin-2-yl-1,2,4-triazol-3-yl)ethyl]-3-chloro-5-(trifluoromethyl) benzamide]
≥ 80%: percent effect (mortality or growth inhibition) at 200 ppm [8] | mortality at 50 ppm [5] | percent effect (mortality or growth inhibition) at 200 ppm [2] | percent control (mortality, anti-feedant effect or growth inhibition) at 200 ppm [9] | percent effect (mortality or growth inhibition) at 200 ppm [3] | mortality at 500 ppm [10] | percent control (mortality, anti-feedant effect or growth inhibition) at 200 ppm [4]

CC(NC(=O)c1cc(C(F)(F)F)cc(C(F)(F)F)c1)c1nc(C=O)nn1-c1ncccn1 (centres unmarked) [Compound P38, N-[1-(5-formyl-2-pyrimidin-2-yl-1,2,4-triazol-3-yl)ethyl]-3,5-bis(trifluoromethyl) benzamide]
≥ 80%: mortality at 50 ppm [5] | mortality at 12 ppm [6] | percent effect (mortality or growth inhibition) at 200 ppm [3] | mortality at 500 ppm [10]
